Drawing on patent publication US10245275B2 (ViiV HEALTHCARE UK (NO.4) LIMITED, priority 2014, dated 2019), this text covers EC50 for nine compounds.

Assay [1] relates to HIV-1 NL4-3 gag A364V virus. Briefly: microbe, parasite or virus in culture. In kind it is cell-based. The essentials: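 Recombinant NL4-3 reporter virus with Renilla luciferase replacing part of nef, made by transfection of 293T cells. MT-2 cells infected for 4-5 days with serial inhibitor dilutions; antiviral activity quantified by luciferase activity.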
For assay [2], the system named is WT (wild-type HIV virus; recombinant NL4-3 virus). The assay is described as follows: microbe, parasite or virus in culture. In kind it is cell-based, HIV-1. The essentials: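 MT-2 cells infected 4-5 days with NL4-3 carrying Renilla luciferase in place of part of nef (Gag P373S), virus made by 293T transfection, with serial inhibitor dilutions. Antiviral activity read as luciferase activity by a modified dual-luciferase read-out.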

Where [3] appears, read: Human immunodeficiency virus 1, NL43, MT2, read-out: A364V (EC50, uM), Table 1 regular screen, class symbol.
The mark [4] stands for this setting: Human immunodeficiency virus 1, NL43, MT2, read-out: WT (EC50, uM), Table 1 regular screen, class symbol.
[5] abbreviates: Human immunodeficiency virus 1, NL43, MT2, read-out: A364V (EC50, uM), Table 1 regular screen, MT-2 cells, luciferase readout.
The mark [6] stands for this setting: Human immunodeficiency virus 1, NL43, MT2, read-out: WT (EC50, uM), Table 1 regular screen, MT-2 cells, luciferase readout.

Like-named read-outs stand apart in the source and are kept apart here. Where only a bound is given, the exact number is not on record here.

As for `C=C(C)[C@@H]1CC[C@]2(CN(CCCN3CCS(=O)(=O)CC3)C(C)=O)CC[C@]3(C)[C@H](CC[C@@H]4[C@@]5(C)CC=C(C6=CC[C@@](CF)(C(=O)O)CC6)C(C)(C)[C@@H]5CC[C@]43C)[C@@H]12` [Example 12, (R)-4-((1R,3aS,5aR,5bR,7aR,11aS,11bR,13aR,13bR)-3a-((N-(3-(1,1-dioxidothiomorpholino)propyl)acetamido)methyl)-5a,5b,8,8,11a-pentamethyl-1-(prop-1-en-2-yl)-2,3,3a,4,5,5a,5b,6,7,7a,8,11,11a,11b,12,13,13a,13b-octadecahydro-1H-cyclopenta[a]chrysen-9-yl)-1-(fluoromethyl)cyclohex-3-enecarboxylic acid], the results for the EC50 in assay [1] (setting [3]) and in assay [2] (setting [4]) were greater than 0.05 µM and less than 0.05 µM, respectively.

With `C=C(C)[C@@H]1CC[C@]2(NCC(O)CN3CCS(=O)(=O)CC3)CC[C@]3(C)[C@H](CC[C@@H]4[C@@]5(C)CC=C(C6=CC[C@](CF)(C(=O)O)CC6)C(C)(C)[C@@H]5CC[C@]43C)[C@@H]12` (stereo partly drawn) [Example 2-8, (1S)-4-((1R,3aS,5aR,5bR,7aR,11aS,11bR,13aR,13bR)-3a-((3-(1,1-dioxidothiomorpholino)-2-hydroxypropyl)amino)-5a,5b, 8,8,11a-pentamethyl-1-(prop-1-en-2-yl)-2,3,3a,4,5,5a,5b,6,7,7a,8,11,11a,11b,12,13,13a,13b-octadecahydro-1H-cyclopenta[a]chrysen-9-yl)-1-(fluoromethyl)cyclohex-3-enecarboxylic acid], the EC50 in assay [1] (setting [5]) was 1.91 µM; in assay [2] (setting [6]) it was 0.00233 µM.

As for `C=C(C)[C@@H]1CC[C@]2(NCCN3CC(C)S(=O)(=O)C(C)C3)CC[C@]3(C)[C@H](CC[C@@H]4[C@@]5(C)CC=C(C6=CC[C@@](CF)(C(=O)O)CC6)C(C)(C)[C@@H]5CC[C@]43C)[C@@H]12` (stereo partly drawn) [Example 24, (1R)-4-((1R,3aS,5aR,5bR,7aR,11aS,11bR,13aR,13bR)-3a-((2-(2,6-dimethyl-1,1-dioxidothiomorpholino)ethyl)amino)-5a,5b,8,8,11a-pentamethyl-1-(prop-1-en-2-yl)-2,3,3a,4,5,5a,5b,6,7,7a,8,11,11a,11b,12,13,13a,13b-octadecahydro-1H-cyclopenta[a]chrysen-9-yl)-1-(fluoromethyl)cyclohex-3-enecarboxylic acid], the results for the EC50 in assay [1] (setting [3]) and in assay [2] (setting [4]) were greater than 0.05 µM and less than 0.05 µM, respectively.

Consider `C=C(C)[C@@H]1CC[C@]2(NCCN3CCC(C(=O)O)(C(=O)O)CC3)CC[C@]3(C)[C@H](CC[C@@H]4[C@@]5(C)CC=C(C6=CC[C@@](CF)(C(=O)O)CC6)C(C)(C)[C@@H]5CC[C@]43C)[C@@H]12` [Example 16, 1-(2-(((1R,3aS,5aR,5bR,7aR,11aS,11bR,13aR,13bR)-9-((R)-4-carboxy-4-(fluoromethyl)cyclohex-1-en-1-yl)-5a,5b,8,8,11a-pentamethyl-1-(prop-1-en-2-yl)-2,3,3a,4,5,5a,5b,6,7,7a,8,11,11a,11b,12,13,13a,13b-octadecahydro-1H-cyclopenta[a]chrysen-3a-yl)amino)ethyl)piperidine-4,4-dicarboxylic acid], for which the EC50 is 3 µM in assay [1] (setting [5]) and 0.43 µM in assay [2] (setting [6]).

For the compound `C=C(C)[C@@H]1CC[C@]2(NCC(=O)N3CCC(S(C)(=O)=O)CC3)CC[C@]3(C)[C@H](CC[C@@H]4[C@@]5(C)CC=C(C6=CC[C@](CF)(C(=O)O)CC6)C(C)(C)[C@@H]5CC[C@]43C)[C@@H]12` [Example 31, (S)-1-(fluoromethyl)-4-((1R,3aS,5aR,5bR,7aR,11aS,11bR,13aR,13bR)-5a,5b, 8,8,11a-pentamethyl-3a-((2-(4-(methylsulfonyl)piperidin-1-yl)-2-oxoethyl)amino)-1-(prop-1-en-2-yl)-2,3,3a,4,5,5a,5b,6,7,7a,8,11,11a,11b,12,13,13a,13b-octadecahydro-1H-cyclopenta[a]chrysen-9-yl)cyclohex-3-enecarboxylic acid], the EC50 was greater than 0.05 µM in assay [1] (setting [3]) and less than 0.05 µM in assay [2] (setting [4]).

As for `C=C(C)[C@@H]1CC[C@]2(NCCCC(C)(C)O)CC[C@]3(C)[C@H](CC[C@@H]4[C@@]5(C)CC=C(C6=CC[C@](CF)(C(=O)O)CC6)C(C)(C)[C@@H]5CC[C@]43C)[C@@H]12` [Example 2-3, (S)-1-(fluoromethyl)-4-((1R,3aS,5aR,5bR,7aR,11aS,11bR,13aR,13bR)-3a-((4-hydroxy-4-methylpentyl)amino)-5a,5b,8,8,11a-pentamethyl-1-(prop-1-en-2-yl)-2,3,3a,4,5,5a,5b,6,7,7a,8,11,11a,11b,12,13,13a,13b-octadecahydro-1H-cyclopenta[a]chrysen-9-yl)cyclohex-3-enecarboxylic acid], the EC50 was greater than 0.05 µM in assay [1] (setting [3]) and less than 0.05 µM in assay [2] (setting [4]).

Consider `C=C(C)[C@@H]1CC[C@]2(NCC=C(C3CC3)C3CC3)CC[C@]3(C)[C@H](CC[C@@H]4[C@@]5(C)CC=C(C6=CC[C@](CF)(C(=O)O)CC6)C(C)(C)[C@@H]5CC[C@]43C)[C@@H]12` [Example 2-6, (S)-4-((1R,3aS,5aR,5bR,7aR,11aS,11bR,13aR,13bR)-3a-((3,3-dicyclopropylallyl)amino)-5a,5b,8,8,11a-pentamethyl-1-(prop-1-en-2-yl)-2,3,3a,4,5,5a,5b,6,7,7a,8,11,11a,11b,12,13,13a,13b-octadecahydro-1H-cyclopenta[a]chrysen-9-yl)-1-(fluoromethyl)cyclohex-3-enecarboxylic acid], for which the values for the EC50 in assay [1] (setting [5]) and in assay [2] (setting [6]) were 3 µM and 0.011 µM, respectively.

In the case of `C=C(C)[C@@H]1CC[C@]2(NCCN3CCS(=O)(=O)CC(C)C3)CC[C@]3(C)[C@H](CC[C@@H]4[C@@]5(C)CC=C(C6=CC[C@@](CF)(C(=O)O)CC6)C(C)(C)[C@@H]5CC[C@]43C)[C@@H]12` (stereo partly drawn) [Example 26, (1R)-1-(fluoromethyl)-4-((1R,3aS,5aR,5bR,7aR,11aS,11bR,13aR,13bR)-5a,5b,8,8,11a-pentamethyl-3a-((2-(6-methyl-1,1-dioxido-1,4-thiazepan-4-yl)ethyl)amino)-1-(prop-1-en-2-yl)-2,3,3a,4,5,5a,5b,6,7,7a,8,11,11a,11b,12,13,13a,13b-octadecahydro-1H-cyclopenta[a]chrysen-9-yl)cyclohex-3-enecarboxylic acid], the EC50 in assay [1] (setting [3]) was greater than 0.05 µM; in assay [2] (setting [4]), less than 0.05 µM.

On to `C=C(C)[C@@H]1CC[C@]2(NCCN3C[C@@H]4CC3CS4(=O)=O)CC[C@]3(C)[C@H](CC[C@@H]4[C@@]5(C)CC=C(C6=CC[C@](CF)(C(=O)O)CC6)C(C)(C)[C@@H]5CC[C@]43C)[C@@H]12` (stereo in doubt) [Example 4, (S)-4-((1R,3aS,5aR,5bR,7aR,11aS,11bR,13aR,13bR)-3a-((2-((1S,4S)-2,2-dioxido-2-thia-5-azabicyclo[2.2.1]heptan-5-yl)ethyl)amino)-5a,5b, 8,8,11a-pentamethyl-1-(prop-1-en-2-yl)-2,3,3a,4,5,5a,5b,6,7,7a,8,11,11a,11b,12,13,13a,13b-octadecahydro-1H-cyclopenta[a]chrysen-9-yl)-1-(fluoromethyl)cyclohex-3-enecarboxylic acid], for which the EC50 is 0.0392 µM in assay [1] (setting [5]) and 0.00141 µM in assay [2] (setting [6]).
